Reference: ChEMBL document CHEMBL1147758, “4-hydroxyisoleucine an unusual amino acid as antidyslipidemic and antihyperglycemic agent” (2006)

What was measured:
Assay type in all cases: functional, Mesocricetus auratus
[1] = system: Syrian golden hamster; experiment: Increase in ratio between HDL-cholesterol and total cholesterol in dyslipidemic male syrian hamsters at 50 mg/kg, po
[2] = system: Syrian golden hamster; experiment: Lowering of plasma triglyceride level in dyslipidemic male syrian hamsters at 50 mg/kg, po
[3] = system: Syrian golden hamster; experiment: Increase in HDL-cholesterol in dyslipidemic male syrian hamsters at 50 mg/kg, po
[4] = system: Syrian golden hamster; experiment: Lowering of total cholesterol level in dyslipidemic male syrian hamsters at 50 mg/kg, po
[5] = system: Syrian golden hamster; experiment: Lowering of glycerol in dyslipidemic male syrian hamsters at 50 mg/kg, po
[6] = system: Syrian golden hamster; experiment: Lowering of free fatty acids in dyslipidemic male syrian hamsters at 50 mg/kg, po

Question: Which results are given for `C[C@@H]([C@H](C)O)[C@H](N)C(=O)O`?
Answer: Ratio [1]: 39%; Activity [2]: 33%; Activity [3]: 8.7%; Activity [4]: 22%; Activity [5]: 4.9%; Activity [6]: 14%
